How the values were obtained:
desmin = desmin gene and protein expression in serum-starved hBC; type: cell-based, human; conditions: 10 nM
Procedure: To detect desmin both at gene or protein level hBC cells were seeded in their growth medium onto 10 mm diameter culture dishes or onto sterile glass slides (about 10^4 cells/ml), for mRNA or immunocytochemical analysis, respectively. hBC cells at about 30% confluency, after overnight starvation in serum-free medium were incubated in phenol red- and serum-free medium containing 0.1% BSA with or without Compound A (10^−8 M) for 2, 4, 8 and 12 days, and the medium was changed every 2 days. Cells were harvested for mRNA or protein analysis by Taqman or Western blot analysis, respectively, and the slides were processed for specific protein immunocytochemical detection Quantitative analysis using real-time RT-PCR of desmin mRNA expression in serum-starved hBC treated with Compound A (10 nM, grey columns) was examined at different time points (2-12 days). Results are derived from five different experiments from three distinct hBC preparations and are expressed as fold increase compared to time zero. *P≦0.01 or °P=0.04 vs. control, open columns and are shown in FIG. 8.
Western blot detection of desmin in hBC was conducted as follows: thirty μg of proteins were separated by 10% SDS-PAGE, transferred onto nitrocellulose membrane, and probed with anti-desmin antibody (1:1000). A band of about 58 kDa was detected in each sample of hBC. […]

bladder strips = test: contractile properties of isolated bladder strips from BOO model rats; parameters: species or system Sprague-Dawley rats; conditions: in vitro test
Procedure: After completion of the cystometries, the rats were sacrified by carbon monoxide asphyxiation followed by exsanguination. The abdomen was accessed through a lower midline incision whereafter the symphysis was opened. The bladder was carefully dissected free, and immediately placed in chilled Krebs solution, and strip preparations were dissected.
The bladder and urethra were separated at the level of the bladder neck, and semicircular strips were prepared from the middle third of the detrusor (1×2×5 mm). All preparations were used immediately after removal.
The strips were transferred to 5 ml tissue baths containing Krebs solution. The Krebs solution was maintained at 37° C. and bubbled continuously with a mixture of 95% O2 and 5% CO2, resulting in a pH of 7.4. The strips were suspended between two L-shaped hooks by means of silk ligatures. One hook was connected to a movable unit allowing adjustment of passive tension, and the other to a Grass FT03C (Grass Instruments Co, MA, USA) force transducer. Isometric tension was recorded using a Grass polygraph (7D). After mounting, the strips were stretched to a passive tension of 4 mN (the same tension for all preparations) and allowed to equilibrate for 45-60 min before further experiments were performed.
Electrical field stimulation (EFS) was accomplished by means of two platinum electrodes placed on either side of the preparations, and was performed using a Grass S48 or S88 stimulator, delivering single square wave pulses at selected frequencies. The train duration was 5 s, the pulse duration 0.8 ms, and the stimulation interval 2 min. The polarity of the electrodes was shifted after each pulse by means of a polarity changing unit.
Each experiment was started by exposing the preparations to a high K^+ (124 mM) Krebs solution until two reproducible contractions are obtained. Then the following experiments were carried out:
a) Electrical stimulation of nerves was performed and frequency-response relations obtained, in the presence and absence of atropine.
b) Concentration-response curves were constructed for carbachol and ATP […]

C=C1/C(=C\C=C2/CCC[C@]3(C)C([C@@H](C)C/C=C/C(O)(CC)CC)=CC[C@@H]23)C[C@@H](O)C[C@@H]1F [Compound A, 1-alpha-fluoro-25-hydroxy-16,23E-diene-26,27-bishomo-20-epi-cholecalciferol]
desmin protein expression (Western blot) (desmin; at any time point tested (2-12 days), FIG. 9): decreased | serum starvation-induced progressive increase in desmin expression (desmin; mRNA and protein, FIGS. 8-11): almost completely counteracted | response to carbachol of bladder strips (bladder strips): beneficial effect | response to EFS of bladder strips (bladder strips; electrical field stimulation, FIG. 21): beneficial effect | K response of bladder strips (bladder strips; strips from treated rats, high K+ (124 mM)): beneficial effect
